Laboratory results as given in patent US11724980B2, “Quinones having high capacity retention for use as electrolytes in aqueous redox flow batteries” (President and Fellows of Harvard College, priority 2018, dated 2023).
Like-named read-outs stand apart in the source and are kept apart here.

Key:
[1] = Rotating disk electrode study with Levich analysis; type: physicochemical; conditions: 5 mM in 1 M KOH, Levich plot
Description: Glassy carbon was used as the working electrode for all three-electrode CV tests. RDE experiments were conducted using a Pine Instruments Modulated Speed Rotator AFMSRCE equipped with a 5 mm diameter glassy carbon working electrode, a Ag/AgCl reference electrode (BASi, pre-soaked in 3 M NaCl solution), and a graphite counter electrode. The electrode was rotated at a specific speed while the voltage was linearly swept from −0.4 to −0.11 V vs. Ag/AgCl (FIG. 4A). […]. RDE experiments were conducted using a Pine Instruments Modulated Speed Rotator AFMSRCE equipped with a 5 mm diameter glassy carbon working electrode, a Ag/AgCl reference electrode (BASi, pre-soaked in a 3 M KCl solution), and a graphite counter electrode. […]

[2] = Unbalanced compositionally-symmetric cell cycling
Description: As a direct probe of the effect of O-alkylation of anthraquinone on its chemical stability, 2,6-DBEAQ was cycled potentiostatically in a volumetrically unbalanced compositionally-symmetric cell configuration.
Potentiostatic symmetric cell cycling was performed according to a reported procedure^8 in order to assess the temporal chemical stability of DBEAQ, independent of any variations in apparent capacity as a result of changes to membrane resistance, and in a configuration where there is negligible water or reactant crossover due to the same DBEAQ concentration being used in both electrolytes. […] 5 mL of the resulting electrolyte was used as the capacity-limiting side of a volumetrically unbalanced compositionally-symmetric cell, while the remaining 10 mL was used as the non-capacity-limiting side, i.e., with twice the nominal capacity of the capacity-limiting side. […].
The cycling stability of the DPPEAQ electrolyte was also studied by a previously published symmetric cell method.^24 Although the oxidized form of DPPEAQ is readily soluble at pH 9, proton-coupled electron transfer raises the pH of the electrolyte when it is reduced. Such pH fluctuations can produce misleading results in symmetric cell testing unless the starting pH is above the cutoff point for proton-coupled electron transfer.

physchem = type: physicochemical; conditions: for solubility: thermodynamic from solid
Description: Solubility limits of all DBEAQ isomers were measured in their oxidized forms by adding the potassium salt of DBEAQ (prepared by reacting DBEAQ with potassium hydroxide in water) until no further solid could be dissolved. After filtering the mixture through a PTFE 0.45 μm syringe filter, a saturated solution of DBEAQ in KOH was obtained. The saturated solution was then diluted by a known amount, and the concentration was evaluated by UV-Vis (Ocean Optics Flame-S Spectrometer Assembly) at 280 and 364 nm. […]
The solubility limit of DPPEAQ was measured in the oxidized form by adding the potassium salt of DPPEAQ (prepared by reacting DPPEAQ with potassium hydroxide in water) until no further solid could be dissolved. The mixture was adjusted to pH 9. After filtering the mixture through a PTFE 0.45 μm syringe filter, a saturated solution of DPPEAQ at pH 9 was obtained. The saturated solution was then diluted by a known amount while maintaining a pH of 9, and the concentration was evaluated by UV-Vis (Agilent Cary 60 spectrophotometer). The concentration was calculated according to a pre-calibrated absorbance-concentration curve of known concentrations of DPPEAQ at pH 9.

Q: With O=C([O-])CCCOc1ccc2c(c1)C(=O)c1ccc(OCCCC(=O)[O-])cc1C2=O.[K+].[K+] [2,6-DBEAQ, 4,4′-((9,10-anthraquinone-2,6-diyl)dioxy)dibutyric acid] as the compound, how does the “diffusion coefficient for the oxidized form” value [1] read?
A: 1.58×10^−6 cm^2/s

Q: And the “temporal capacity fade rate” value ([2]; pH 14 (1 M KOH), 0.10 M (2,6-DBEAQ also 0.65 M))?
A: < 0.01 %/day

Q: What about the “temporal capacity fade rate” value ([2]; pH 14, 0.10 and 0.65 M) of the same compound?
A: < 3.0 %/year

Q: And the “Maximum Solubility” value (physchem; KOH, pH 12)?
A: 600 mM

Q: And the solubility (physchem; pH 9, aqueous buffer, pH 9, read-out: solubility)?
A: < 0.035 M

Q: What about the solubility (physchem; pH 12, aqueous buffer, KOH, pH 12, read-out: Maximum Solubility) of the same compound?
A: > 0.5 M

Q: What about the solubility (physchem; pH 12, aqueous buffer, pH 12 (value in brackets), read-out: Solubility (M) at pH 14 (pH 12)) of the same compound?
A: 0.6 M

Q: What about the solubility (physchem; pH 14, aqueous buffer, KOH, pH 14, read-out: Maximum Solubility) of the same compound?
A: > 1 M

Q: And the solubility (physchem; pH 14, aqueous buffer, pH 14 (value outside brackets), read-out: Solubility (M) at pH 14 (pH 12))?
A: 1.1 M
